One data set has as its system breast cancer cases. Put plainly: Replication study, extended breast cancer material Swedish Cancer Registry 2000-2013 (n=103 500 cases), late entry models. The data set is classed as in vivo, human. Conditions: for Breast cancer survival HR / Overall survival HR: use after diagnosis, adjusted for age, tumour stage, late entry models; for BC survival HR: extended study, real patient data; for Survival of users compared with non-users, in words: replication study, Table 10; for Breast cancer survival HR by desloratadine use: late entry model. Here is the method:
Using an extended breast cancer material of all cases from the Swedish Cancer Registry 2000-2013 (n=103 500 cases) linking the data with the Drug Prescription Registry a replication study was carried out. The data from this extended study can be found in Tables 10 and 11. With the larger set of data, the effect for each individual antihistamine becomes more pronounced.
Using an extended breast cancer material of all cases from the Swedish Cancer Registry 2000-2013 (n=103 500 cases) linking the data with the Drug Prescription Registry a replication study was carried out. The data from this extended study are represented in tables 10 and 11.
Using an extended breast cancer material of all cases from the Swedish Cancer Registry 2000-2013 (n=103 500 cases) linking the data with the Drug Prescription Registry, a replication study was carried out, as shown in table 10.

Data set [1] deals with women with invasive BC. The note with it: for Hazard ratio Exp(B), ER Negative Breast Cancer / Hazard ratio Exp(B), ER Positive Breast Cancer / BC specific survival compared to controls (Kaplan-Meier, univariate): late entry model; for Hazard ratio Exp(B), ER Negative Breast Cancer / Hazard ratio Exp(B), ER Positive Breast Cancer / Hazard ratio Exp(B), Cox proportional hazard - late entry model: adjusted for age at BC diagnosis and TN-stage; for HR (CI), late entry model: adjusted for age at BC diagnosis and TN; for Hazard ratio Exp(B), Cox proportional hazard - late entry model: ever-use vs controls, cases before 1st of Jul. 2005 and unknown N-status censored, Table 5; for Dead in BC (Yes): groups by main antihistamine used, patients from 1st of Jul. 2005-31st of Dec. 2008; for BC specific survival compared to controls (Kaplan-Meier, univariate): FIGS. 4 and 5.

Data set [2] deals with women with invasive BC. The note with it: for BC specific survival compared to controls (Kaplan-Meier, univariate): ever-use model, FIGS. 1 to 3; for Dead in BC (Yes): groups by main antihistamine used, all patients from 2000-2008.
For data set [3] the following is noted: multi dose studies with 100 mg per day; cited from earlier work.
The mark [4] stands for this setting: Survival 2009-2014 (title: 2009-2013).

Molecules are shown by their SMILES. Where two headings read alike, the source gives them in different places.

For the compound `O=C(O)COCCN1CCN(C(c2ccccc2)c2ccc(Cl)cc2)CC1` (centres unmarked) [Cetirizine, cetirizine], in the data set with breast cancer cases (Survival 2005-2008), the “Breast cancer survival HR” value turned out to be 1.08 and the “Overall survival HR” value is given as 1.41. In the data set with breast cancer cases (setting [4]), the “Breast cancer survival HR” value turned out to be 1.21 and the “Overall survival HR” value amounted to 1.09. Moreover, in the data set on breast cancer cases, the “BC survival HR” value was found to be 1.28 and the “Survival of users compared with non-users, in words” value is “negatively affects survival”. Besides, in the data set with women with invasive BC [1], the “Hazard ratio Exp(B), ER Negative Breast Cancer” value was determined as 1.491; the “Hazard ratio Exp(B), ER Positive Breast Cancer” value was found to be 2.166; the “HR (CI), late entry model” value is given as 1.13 (0.96-1.33); the “Hazard ratio Exp(B), Cox proportional hazard - late entry model” value (from here on “Hazard ratio Exp(B) … - late entry model”) worked out at 1.194. Besides, in the data set with women with invasive BC [1], the “Dead in BC (Yes)” value amounted to 16.5% and the “BC specific survival compared to controls (Kaplan-Meier, univariate)” value is reported as “non-statistically significant longer BC specific survival”. In addition, in the data set with women with invasive BC [2], the “BC specific survival compared to controls (Kaplan-Meier, univariate)” value is given as “initially had a higher survival percentage compared to controls, but with time it became lower compared to controls” and the “Dead in BC (Yes)” value was 18.0%.
As for `Clc1ccc2c(c1)CCc1cccnc1C2=C1CCNCC1` [Desloratadine, desloratadine], the “Breast cancer survival HR by desloratadine use” value in the data set on breast cancer cases (<400 days use vs never) is given as 0.94; in the data set with breast cancer cases (≥400 days use vs never), 0.62. Also, the entries for the “Breast cancer survival HR” value with breast cancer cases (Survival 2005-2008) and with breast cancer cases (setting [4]) were 0.47 and 0.74, respectively. Also, the figures for the “Overall survival HR” value in the data set on breast cancer cases (Survival 2005-2008) and in the data set on breast cancer cases (setting [4]) were 0.47 and 0.71, respectively. In the data set with breast cancer cases, the “Survival of users compared with non-users, in words” value is “better overall and BC specific survival”. Also, the “Survival HR, users compared with non users” value in the data set on breast cancer cases (years before 2009) stood at 0.63. Also, the “Dead in BC (Yes)” value amounted to 8.1% in the data set with women with invasive BC [1] and 7.1% in the data set with women with invasive BC [2]. The “BC specific survival compared to controls (Kaplan-Meier, univariate)” value in the data set with women with invasive BC [1] was “statistically significant longer BC specific survival”; in the data set on women with invasive BC [2], “clear, statistically significant, longer BC specific survival”. The “Effect on breast cancer survival rate by treatment period (FIG. 7)” value in the data set on women with invasive BC [1] (use only after the BC diagnosis) was “clear positive effects can be shown”; in the data set with women with invasive BC [1] (use only before the BC diagnosis), “no positive effects on breast cancer survival rate can be established”.
As for `CC(C)(C)c1ccc(C(=O)CCCN2CCC(OC(c3ccccc3)c3ccccc3)CC2)cc1` [Ebastin, ebastin], in the data set on breast cancer cases (Survival 2005-2008), the “Breast cancer survival HR” value is given as 0.25 and the “Overall survival HR” value is recorded as 0.48. In the data set on breast cancer cases (setting [4]), the “Breast cancer survival HR” value worked out at 0.75 and the “Overall survival HR” value was determined as 0.91. Also, in the data set with breast cancer cases, the “Survival of users compared with non-users, in words” value is “better overall and BC specific survival”. In the data set with women with invasive BC [1], the “HR (CI), late entry model” value is given as 0.50 (0.22-1.12); the “Dead in BC (Yes)” value is 5.7%; the “BC specific survival compared to controls (Kaplan-Meier, univariate)” value is “statistically significant longer BC specific survival”. For the same compound, the Clinical side effects result in data set [3] is listed as “did not show any further clinical side effects”. In addition, in the data set on women with invasive BC [2], the “BC specific survival compared to controls (Kaplan-Meier, univariate)” value was “clear, statistically significant, longer BC specific survival” and the “Dead in BC (Yes)” value is recorded as 6.7%.
Turning to `CC(C)(C(=O)O)c1ccc(C(O)CCCN2CCC(C(O)(c3ccccc3)c3ccccc3)CC2)cc1` (centres unmarked) [Fexofenadine, fexofenadine], in the data set on breast cancer cases (Survival 2005-2008), the “Breast cancer survival HR” value is listed as 1.20 and the “Overall survival HR” value was 1.40. In the data set on breast cancer cases (setting [4]), the “Breast cancer survival HR” value amounted to 0.85 and the “Overall survival HR” value came out at 0.65. Further, in the data set with women with invasive BC [1], the “Hazard ratio Exp(B), ER Negative Breast Cancer” value is “.316”; the “Hazard ratio Exp(B), ER Positive Breast Cancer” value is listed as “.826”; the “HR (CI), late entry model” value is given as 0.73 (0.30-1.76); the “Hazard ratio Exp(B) … - late entry model” value is “.802”. In addition, in the data set with women with invasive BC [1], the “Dead in BC (Yes)” value came to 11.6% and the “BC specific survival compared to controls (Kaplan-Meier, univariate)” value is “non-statistically significant longer BC specific survival”. In addition, in the data set with women with invasive BC [2], the “BC specific survival compared to controls (Kaplan-Meier, univariate)” value is recorded as “clear, statistically significant, longer BC specific survival” and the “Dead in BC (Yes)” value was found to be 9.0%.
On to `CN1CCC[C@@H]1CCO[C@](C)(c1ccccc1)c1ccc(Cl)cc1` [Klemastine, klemastine], for which, in the data set on breast cancer cases (Survival 2005-2008), the “Breast cancer survival HR” value is reported as 1.43 and the “Overall survival HR” value is listed as 2.07. Besides, in the data set with breast cancer cases (setting [4]), the “Breast cancer survival HR” value amounted to 0.94 and the “Overall survival HR” value is recorded as 1.08. In addition, in the data set with breast cancer cases, the “BC survival HR” value amounted to 1.12 and the “Survival of users compared with non-users, in words” value is reported as “negatively affects survival”. In the data set with women with invasive BC [1], the “HR (CI), late entry model” value was 0.98 (0.80-1.19); the “Dead in BC (Yes)” value came out at 14.3%; the “BC specific survival compared to controls (Kaplan-Meier, univariate)” value is reported as “non-statistically significant longer BC specific survival”. Further, in the data set on women with invasive BC [2], the “BC specific survival compared to controls (Kaplan-Meier, univariate)” value was “clear, statistically significant, longer BC specific survival” and the “Dead in BC (Yes)” value was determined as 13.8%.
As to `CCOC(=O)N1CCC(=C2c3ccc(Cl)cc3CCc3cccnc32)CC1` [Loratadine, loratadine], in the data set with breast cancer cases (Survival 2005-2008), the “Breast cancer survival HR” value amounted to 0.77 and the “Overall survival HR” value is reported as 1.05. In the data set with breast cancer cases (setting [4]), the “Breast cancer survival HR” value was 0.93 and the “Overall survival HR” value was 0.86. In addition, in the data set with women with invasive BC [1], the “Hazard ratio Exp(B), ER Negative Breast Cancer” value is reported as “.945”; the “Hazard ratio Exp(B), ER Positive Breast Cancer” value worked out at 1.087; the “HR (CI), late entry model” value was 0.74 (0.60-0.93); the “Hazard ratio Exp(B) … - late entry model” value was “.816”. Moreover, in the data set on women with invasive BC [1], the “Dead in BC (Yes)” value was found to be 10.4% and the “BC specific survival compared to controls (Kaplan-Meier, univariate)” value was “statistically significant longer BC specific survival”. Also, in the data set with women with invasive BC [2], the “BC specific survival compared to controls (Kaplan-Meier, univariate)” value is “clear, statistically significant, longer BC specific survival” and the “Dead in BC (Yes)” value came to 11.7%.

(Values after patent publication US10456388B2, “Antihistamine for use in treatment of breast cancer” (BELINA PHARMA AB, priority 2015, dated 2019).)
